Here are results for 25 molecules from PubChem BioAssay AID248 (DTP/NCI, 2004).

The test concerns L1210 leukemia ip in BDF1 mice, survival T/C. In words: NCI In Vivo Anticancer Drug Screen. Data for tumor model L1210 Leukemia (intraperitoneal) in B6D2F1 (BDF1) mice. The conditions noted are these: endpoint: mean survival time, higher = longer survival. Put shortly:
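Each compound was tested against a transplantable tumor grown in mice. The endpoint was survival, with treated animals benchmarked against vehicle controls as a simple ratio.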

Where [1] appears, read: dose: 100.0 mg/kg/injection, schedule: Q01DX001 (ip), vehicle: carboxymethylcellulose (CMC).
Where [2] appears, read: dose: 200.0 mg/kg/injection, schedule: Q01DX001 (ip), vehicle: carboxymethylcellulose (CMC).
The mark [3] stands for this setting: dose: 400.0 mg/kg/injection, schedule: Q01DX001 (ip), vehicle: carboxymethylcellulose (CMC).
Setting [4] is: dose: 100.0 mg/kg/injection, schedule: Q01DX009 (ip), vehicle: Klucel (hydroxypropylcellulose) (HPC).
The mark [5] stands for this setting: dose: 100.0 mg/kg/injection, schedule: Q04DX003 (ip), vehicle: Klucel (hydroxypropylcellulose) (HPC).
Where [6] appears, read: dose: 200.0 mg/kg/injection, schedule: Q01DX009 (ip), vehicle: Klucel (hydroxypropylcellulose) (HPC).
Setting [7] is: dose: 200.0 mg/kg/injection, schedule: Q04DX003 (ip), vehicle: Klucel (hydroxypropylcellulose) (HPC).
[8] abbreviates: dose: 400.0 mg/kg/injection, schedule: Q01DX009 (ip), vehicle: Klucel (hydroxypropylcellulose) (HPC).
The mark [9] stands for this setting: dose: 400.0 mg/kg/injection, schedule: Q04DX003 (ip), vehicle: Klucel (hydroxypropylcellulose) (HPC).
[10] abbreviates: dose: 50.0 mg/kg/injection, schedule: Q01DX001 (ip), vehicle: carboxymethylcellulose (CMC).
Setting [11] is: dose: 100.0 mg/kg/injection, schedule: Q04DX003 (ip), vehicle: saline with Tween-80.
Setting [12] is: dose: 100.0 mg/kg/injection, schedule: Q04DX003 (ip), vehicle: saline.
[13] abbreviates: dose: 200.0 mg/kg/injection, schedule: Q04DX003 (ip), vehicle: saline.
Setting [14] is: dose: 400.0 mg/kg/injection, schedule: Q04DX003 (ip), vehicle: saline.
Setting [15] is: dose: 100.0 mg/kg/injection, schedule: Q01DX001 (ip), vehicle: Klucel (hydroxypropylcellulose) (HPC).
Where [16] appears, read: dose: 100.0 mg/kg/injection, schedule: Q01DX001 (ip), vehicle: saline.
The mark [17] stands for this setting: dose: 200.0 mg/kg/injection, schedule: Q01DX001 (ip), vehicle: saline.
Setting [18] is: dose: 400.0 mg/kg/injection, schedule: Q01DX001 (ip), vehicle: saline.
The mark [19] stands for this setting: dose: 100.0 mg/kg/injection, schedule: Q04DX002 (ip), vehicle: saline.

Where “and” joins values, the source holds several entries; their conditions need not be identical. Identical values can stand only once. Toxic doses and inconclusive results are not listed.

With `Nc1ncc(CNc2ccc(C(=O)NC(CCC(=O)O)C(=O)O)cc2)c(N)n1` (configuration not stated), the T/C runs as follows: under setting [1], 98 % of control; under setting [2], 96 % of control; under setting [3], 98 % of control.

Take `Nc1c(N=Nc2cccc([N+](=O)[O-])c2)c(S(=O)(=O)O)cc2cc(S(=O)(=O)O)c(N=Nc3ccc(-c4ccc(N=Nc5cc(S(=O)(=O)O)c6ccccc6c5O)cc4)cc3)c(O)c12`: the T/C was 94 % of control (dose: 50.0 mg/kg/injection, schedule: Q01DX010 (ip), vehicle: saline); 100 % of control (dose: 100.0 mg/kg/injection, schedule: Q01DX010 (ip), vehicle: saline); 92 % of control (dose: 200.0 mg/kg/injection, schedule: Q01DX010 (ip), vehicle: saline).

Regarding `CCCCCCCCCCCCCCCC(N)=O`, the T/C by setting is: under setting [4], 93 % of control; under setting [5], 90 % of control; under setting [6], 102 % of control; under setting [7], 87 % of control; under setting [8], 94 % of control; under setting [9], 98 % of control.

For the molecule `O=C(Nc1ccccc1F)Nc1cc([N+](=O)[O-])ccc1Cl`, the T/C was 87 % of control under setting [4], 94 % of control under setting [6] and 87 % of control under setting [8].

For `CN1C(=O)OC2C3NC(=O)OC3C(O)C(O)C21` (configuration not stated), the T/C is 109 % of control under setting [10], 109 % of control under setting [1], 107 % of control under setting [2] and 102 % of control under setting [3].

Take `O=C1CCC(c2ccccc2)=NN1`: the T/C was 93 % of control under setting [5], 95 % of control under setting [7] and 106 % of control under setting [9].

Take `CSc1ccccc1C(=O)O`: the T/C by setting is: under setting [10], 100 % of control; under setting [1], 100 % of control; under setting [4], 97 % of control; under setting [5], 103 % of control; under setting [2], 94 % of control; under setting [6], 95 % of control. Besides, the T/C is, setting by setting: under setting [7], 94 % of control; under setting [3], 96 % of control; under setting [8], 100 % of control; under setting [9], 110 % of control.

`CSc1sc2ccc(S(=O)(=O)O)cc2[n+]1C`: the T/C was 97 % of control under setting [11] and 94 % of control (dose: 200.0 mg/kg/injection, schedule: Q04DX003 (ip), vehicle: saline with Tween-80).

Consider `CSc1ncc(CO)c(Nc2ccc(F)cc2)n1`, for which the T/C under setting [12] was 93 % of control, the T/C under setting [13] was 100 % of control and the T/C under setting [14] is 98 % of control.

In the case of `CC(C)(C)c1cc(C(C)(C)[N+](C)(C)C)cc(C(C)(C)C)n1`, the T/C reads like this: (dose: 50.0 mg/kg/injection, schedule: Q01DX001 (ip), vehicle: Klucel (hydroxypropylcellulose) (HPC)) 102 % of control; under setting [15], 90 % of control.

On to `C=CCNC(=O)Nc1ncc([N+](=O)[O-])s1`, for which the T/C (dose: 25.0 mg/kg/injection, schedule: Q01DX009 (ip), vehicle: Klucel (hydroxypropylcellulose) (HPC)) is 90 % of control; the T/C (dose: 25.0 mg/kg/injection, schedule: Q04DX002 (ip), vehicle: Klucel (hydroxypropylcellulose) (HPC)) was 101 % of control; the T/C (dose: 50.0 mg/kg/injection, schedule: Q01DX009 (ip), vehicle: Klucel (hydroxypropylcellulose) (HPC)) is 111 % of control; the T/C (dose: 50.0 mg/kg/injection, schedule: Q04DX002 (ip), vehicle: Klucel (hydroxypropylcellulose) (HPC)) is 93 % of control; the T/C (dose: 100.0 mg/kg/injection, schedule: Q04DX002 (ip), vehicle: Klucel (hydroxypropylcellulose) (HPC)) was 93 % of control.

As to `O=C1C(=O)c2ccc(Br)cc2C(O)=C1C(c1ccccc1)c1ccccc1`, the T/C reads like this: under setting [16], 100 % of control; under setting [17], 106 % of control; under setting [18], 96 % of control.

Take `CNC1CC2CCC1(C)C2(C)C` (configuration not stated): the T/C under setting [19] is 96 % of control.

In the case of `Cc1ccc(S(=O)(=O)OC23CCC(C)(CC2)C(=O)C3)cc1`, the T/C runs as follows: under setting [19], 91 % of control; (dose: 200.0 mg/kg/injection, schedule: Q04DX002 (ip), vehicle: saline) 102 % of control; (dose: 400.0 mg/kg/injection, schedule: Q04DX002 (ip), vehicle: saline) 91 % of control.

With `Clc1ccc(COCc2ccccc2COCc2ccc(Cl)cc2Cl)c(Cl)c1`, the T/C runs as follows: under setting [5], 93 % of control; under setting [7], 96 % of control; under setting [9], 88 % of control.

In the case of `O=C(Nc1ccccn1)c1cc(N2CCOCC2)ccn1`, the T/C under setting [16] was 102 % of control.

With `CCC(/C=C/C(C)C1CCC2C3CC=C4CC(O)CCC4(C)C3CCC12C)C(C)C` (configuration not stated) (tested in a mixture with another compound), the T/C reads like this: (dose: 100.0 mg/kg/injection, schedule: Q01DX001 (ip), vehicle: water) 98 % of control; under setting [11], 89 % of control; under setting [12], 103 % of control; (dose: 200.0 mg/kg/injection, schedule: Q01DX001 (ip), vehicle: water) 105 % of control and 94 % of control; under setting [13], 91 % of control; under setting [14], 91 % of control.

Regarding `COC(=O)c1[nH]cnc1/N=N/N(C)CCO`, the T/C reads like this: (dose: 88.0 mg/kg/injection, schedule: Q01DX001 (ip), vehicle: saline) 95 % of control; under setting [16], 104 % of control; (dose: 133.0 mg/kg/injection, schedule: Q01DX001 (ip), vehicle: saline) 97 % of control; under setting [17], 101 % of control and 107 % of control; (dose: 267.0 mg/kg/injection, schedule: Q01DX009 (ip), vehicle: saline) 109 % of control; (dose: 300.0 mg/kg/injection, schedule: Q01DX001 (ip), vehicle: saline) 103 % of control. Also, the T/C is 102 % of control under setting [18]; 100 % of control (dose: 400.0 mg/kg/injection, schedule: Q01DX009 (ip), vehicle: saline); 109 % of control (dose: 600.0 mg/kg/injection, schedule: Q01DX009 (ip), vehicle: saline); 157 % of control (dose: 600.0 mg/kg/injection, schedule: Q01DX015 (ip), vehicle: saline); 111 % of control (dose: 900.0 mg/kg/injection, schedule: Q01DX009 (ip), vehicle: saline).

`CCCCCCCCCCCCCCCCN(C(=S)NC(=O)c1ccccc1)c1ccccc1`: the T/C under setting [15] was 96 % of control; the T/C under setting [5] is 97 % of control; the T/C (dose: 200.0 mg/kg/injection, schedule: Q01DX001 (ip), vehicle: Klucel (hydroxypropylcellulose) (HPC)) is 86 % of control; the T/C under setting [7] is 89 % of control; the T/C (dose: 400.0 mg/kg/injection, schedule: Q01DX001 (ip), vehicle: Klucel (hydroxypropylcellulose) (HPC)) is 92 % of control; the T/C under setting [9] was 95 % of control.

On to `COc1ccc(C(CC(=O)c2ccc3c(c2)OCO3)C(=O)O)cc1OC` (configuration not stated), for which the T/C was 93 % of control under setting [4]; 100 % of control under setting [5]; 98 % of control under setting [6]; 96 % of control under setting [7]; 93 % of control under setting [8]; 93 % of control under setting [9].

Turning to `Cc1nc(N)nc(N)c1Oc1ccc(Cl)cc1`, the T/C is, setting by setting: (dose: 30.0 mg/kg/injection, schedule: Q01DX Z (ip), vehicle: saline) 96 % of control; (dose: 60.0 mg/kg/injection, schedule: Q01DX Z (ip), vehicle: saline) 98 % of control; (dose: 120.0 mg/kg/injection, schedule: Q01DX Z (ip), vehicle: saline) 102 % of control.

In the case of `OCc1ncn[nH]1`, the T/C reads like this: under setting [16], 102 % of control; under setting [17], 95 % of control; under setting [18], 107 % of control.

In the case of `Cc1nnnn1C`, the T/C was 95 % of control under setting [16]; 105 % of control under setting [12]; 108 % of control under setting [17]; 107 % of control under setting [13]; 97 % of control under setting [18]; 88 % of control under setting [14].

`CC(=O)c1ccc(C)c2ccccc12`: the T/C is 101 % of control under setting [16], 102 % of control under setting [17] and 95 % of control under setting [18].

`C=CCOC(=O)Nc1cccc(O)c1`: the T/C is 106 % of control (dose: 100.0 mg/kg/injection, schedule: Q04DX002 (ip), vehicle: saline with Tween-80); 110 % of control (dose: 200.0 mg/kg/injection, schedule: Q04DX002 (ip), vehicle: saline with Tween-80); 103 % of control (dose: 400.0 mg/kg/injection, schedule: Q04DX002 (ip), vehicle: saline with Tween-80).
